The values below come from patent publication US10106515B2, “1-(cyclopent-2-en-1-yl)-3-(2-hydroxy-3-(arylsulfonyl)phenyl)urea derivatives as CXCR2 inhibitors” (GLAXOSMITHKLINE INTELLECTUAL PROPERTY DEVELOPMENT LIMITED, priority 2014, dated 2018).

In this test the target is T1, recombinant human CXCR2 (Homo sapiens, UniProt P25025).
T1 construct: TEV protease site; Gal4-VP16 transcription factor
T1 sequence (P25025 1-360): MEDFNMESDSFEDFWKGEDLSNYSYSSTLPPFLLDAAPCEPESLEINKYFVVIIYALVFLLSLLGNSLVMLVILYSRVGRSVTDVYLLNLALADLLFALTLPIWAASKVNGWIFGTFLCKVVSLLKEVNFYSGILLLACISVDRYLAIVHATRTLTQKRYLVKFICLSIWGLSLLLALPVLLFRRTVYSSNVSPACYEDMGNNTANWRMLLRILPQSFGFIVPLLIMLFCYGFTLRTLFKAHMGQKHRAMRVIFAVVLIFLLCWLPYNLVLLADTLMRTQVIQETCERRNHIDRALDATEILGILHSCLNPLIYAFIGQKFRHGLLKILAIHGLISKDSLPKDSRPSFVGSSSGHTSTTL
Briefly: CXCR2 Tango assay. It is filed as cell-based. To be noted: mean pIC50 of multiple test results; stimulated with 80 nM hCXCL1; reporter gene blue/green emission ratio; read-out: pIC50 (CXCR2 Tango assay) (converted). The procedure, abridged: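 A stable cell line carries human CXCR2 fused to a TEV site and Gal4-VP16, with protease-tagged arrestin. Cells (~10,000/well) were stimulated overnight at 37 °C with 80 nM hCXCL1 and a 10-point compound dilution. CCF4-AM beta-lactamase FRET (460/530 nm ratio) was read, normalized to hCXCL1 and DMSO, and mean pIC50 reported.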

Take `CC1=CCC[C@H]1NC(=O)Nc1ccc(Cl)c(S(=O)(=O)[C@@]2(C)CCOC2)c1O` [Compound 195, 1-(4-chloro-2-hydroxy-3-(((S)-3-methyltetrahydrofuran-3-yl)sulfonyl)phenyl)-3-((R)-2-methylcyclopent-2-en-1-yl)urea]: the IC50 was no more than 10 nM.
